Patent US20120148718A1, “METHOD FOR CONDITIONING ANIMAL FEED” (priority 2009, published 2012)

Assay: Surface tension of 5% solutions in water (Fisher Surface Tensiomat Model 21)
Assay type: physicochemical
Conditions: surfactants, Table 2
Experimental: The surface tensions of various organic acids and different formulations of the present invention were determined. Solutions were diluted to 5% in water and tested using a Fisher Surface Tensiomat Model 21.
Polysorbate-80 is allowed only for use in milk replacers and not for feed application. In the European Union ethoxylated castor oil surfactant is allowed for use in all animals. In order to determine a suitable surfactant to replace polysorbate-80, the surface tensions of different PEG ethoxylated castor oil surfactants were tested in 5% solutions.
The two best formulations from Example 1 were prepared using polysorbate-80 or castor oil PEG-60. The surface tension of 5% solutions of each formulation in water was determined.

## Polysorbate-80
  Surface Tension: 40.57 dynes/cm
